Measurements reported in patent US5318994A, “N-[2-(7-lower-alkoxynaphth-1-yl)ethyl]benzamides” (Adir et Compagnie, priority 1990, dated 1994).

Target: melatonin receptors
Experiment: Test of binding to melatonin receptors
Protocol: Binding of compounds of the invention to melatonin receptors was carried out according to conventional techniques.

COc1ccc2[nH]cc(CCNC(C)=O)c2c1 [melatonin]
Kd: 0.063 nM
